Data: PubChem BioAssay (NCI)
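Tested at 5 concentrations; 48 h exposure; 96-well plates; endpoints linearly interpolated, else capped at highest concentration. At the GI50, growth is halved. The concentration for full growth arrest is given as TGI.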

How the values were obtained:
Experiment in all cases: NCI anticancer screen, dose series, 48 h
[1] = test system: 786-0 renal
[2] = test system: HOP-92 NSCLC
[3] = test system: NCI-H23 lung
[4] = test system: NCI/ADR-RES ovarian
[5] = test system: DU-145 prostate
[6] = test system: M14 melanoma
[7] = test system: A549 NSCLC
[8] = test system: SF-539 CNS
[9] = test system: OVCAR-3 ovarian
[10] = test system: MDA-MB-231 breast
[11] = test system: UACC-62 melanoma
[12] = test system: SK-MEL-5 melanoma
[13] = test system: HL-60(TB) leukemia
[14] = test system: SF-268 CNS
[15] = test system: NCI-H522 lung
[16] = test system: KM12 colon
[17] = test system: SN12C renal
[18] = test system: MOLT-4 leukemia
[19] = test system: RXF 393 renal
[20] = test system: SK-MEL-28 melanoma
[21] = test system: TK-10 renal
[22] = test system: MALME-3M melanoma
[23] = test system: UACC-257 melanoma
[24] = test system: A498 renal
[25] = test system: HCT-116 colon
[26] = test system: CAKI-1 renal
[27] = test system: IGROV1 ovarian
[28] = test system: OVCAR-8 ovarian
[29] = test system: SK-MEL-2 melanoma
[30] = test system: ACHN renal
[31] = test system: SF-295 CNS
[32] = test system: MCF7 breast
[33] = test system: SR leukemia
[34] = test system: EKVX NSCLC
[35] = test system: HCC-2998 colon
[36] = test system: COLO 205 colon
[37] = test system: LOX IMVI melanoma
[38] = test system: CCRF-CEM leukemia
[39] = test system: SNB-75 CNS
[40] = test system: RPMI-8226 leukemia
[41] = test system: MDA-MB-435
[42] = test system: SNB-19 CNS
[43] = test system: HS 578T breast
[44] = test system: UO-31 renal
[45] = test system: U251 CNS
[46] = test system: SW-620 colon
[47] = test system: OVCAR-5 ovarian
[48] = test system: HOP-62 NSCLC
[49] = test system: T-47D breast
[50] = test system: NCI-H460 lung
[51] = test system: HCT-15 colon
[52] = test system: NCI-H226 lung
[53] = test system: PC-3 prostate
[54] = test system: MDA-N
[55] = test system: HT29 colon
[56] = test system: K-562 leukemia
[57] = test system: OVCAR-4 ovarian
[58] = test system: SK-OV-3 ovarian

Which GI50 [1] does the source give for `NC(=O)c1cc(N2CC2)c([N+](=O)[O-])cc1[N+](=O)[O-]` here?
Its GI50 is over 200 µM.

And the TGI [1]?
Its TGI is over 200 µM.

And the GI50 [2]?
Its GI50 is over 200 µM.

What about the TGI [2] of the same compound?
Its TGI is over 200 µM.

What about the GI50 [3] of the same compound?
Its GI50 is over 200 µM.

And the TGI [3]?
The TGI was over 200 µM.

And the TGI [4]?
Its TGI is over 200 µM.

What about the TGI [5] of the same compound?
Its TGI is over 200 µM.

And the GI50 [6]?
Its GI50 is over 200 µM.

And the TGI [6]?
The TGI was over 200 µM.

What about the TGI [7] of the same compound?
The TGI was over 200 µM.

And the GI50 [8]?
Its GI50 is over 200 µM.

And the TGI [8]?
Its TGI is over 200 µM.

What about the GI50 [9] of the same compound?
Its GI50 is over 200 µM.

And the TGI [9]?
Its TGI is over 200 µM.

And the TGI [10]?
Its TGI is over 200 µM.

What about the GI50 [11] of the same compound?
The GI50 was over 200 µM.

What about the TGI [11] of the same compound?
The TGI was over 200 µM.

What about the TGI [12] of the same compound?
The TGI was over 200 µM.

And the GI50 [13]?
The GI50 was over 200 µM.

And the TGI [13]?
Its TGI is over 200 µM.

What about the GI50 [14] of the same compound?
Its GI50 is over 200 µM.

What about the TGI [14] of the same compound?
Its TGI is over 200 µM.

And the GI50 [15]?
Its GI50 is over 200 µM.

What about the TGI [15] of the same compound?
Its TGI is over 200 µM.

And the GI50 [16]?
The GI50 was over 200 µM.

What about the TGI [16] of the same compound?
Its TGI is over 200 µM.

And the GI50 [17]?
Its GI50 is over 200 µM.

And the TGI [17]?
Its TGI is over 200 µM.

What about the TGI [18] of the same compound?
Its TGI is over 63.2 µM.

And the GI50 [19]?
The GI50 was over 200 µM.

And the TGI [19]?
Its TGI is over 200 µM.

What about the TGI [20] of the same compound?
Its TGI is over 200 µM.

What about the TGI [21] of the same compound?
The TGI was over 200 µM.

What about the TGI [22] of the same compound?
The TGI was over 200 µM.

What about the GI50 [23] of the same compound?
Its GI50 is over 200 µM.

And the TGI [23]?
The TGI was over 200 µM.

What about the TGI [24] of the same compound?
Its TGI is 200 µM.

What about the GI50 [25] of the same compound?
The GI50 was over 200 µM.

What about the TGI [25] of the same compound?
The TGI was over 200 µM.

And the GI50 [26]?
Its GI50 is over 200 µM.

And the TGI [26]?
Its TGI is over 200 µM.

What about the GI50 [27] of the same compound?
Its GI50 is over 200 µM.

What about the TGI [27] of the same compound?
Its TGI is over 200 µM.

And the GI50 [28]?
The GI50 was over 200 µM.

What about the TGI [28] of the same compound?
The TGI was over 200 µM.

What about the TGI [29] of the same compound?
The TGI was over 20 µM.

What about the GI50 [30] of the same compound?
Its GI50 is over 200 µM.

And the TGI [30]?
Its TGI is over 200 µM.

What about the GI50 [31] of the same compound?
Its GI50 is over 200 µM.

What about the TGI [31] of the same compound?
Its TGI is over 200 µM.

What about the TGI [32] of the same compound?
Its TGI is over 63.2 µM.

And the TGI [33]?
The TGI was over 200 µM.

And the GI50 [34]?
The GI50 was over 200 µM.

And the TGI [34]?
Its TGI is over 200 µM.

What about the GI50 [35] of the same compound?
Its GI50 is over 200 µM.

What about the TGI [35] of the same compound?
Its TGI is over 200 µM.

What about the GI50 [36] of the same compound?
The GI50 was over 200 µM.

And the TGI [36]?
Its TGI is over 200 µM.

And the GI50 [37]?
The GI50 was over 200 µM.

What about the TGI [37] of the same compound?
Its TGI is over 200 µM.

What about the GI50 [38] of the same compound?
The GI50 was over 200 µM.

And the TGI [38]?
Its TGI is over 200 µM.

And the GI50 [39]?
Its GI50 is over 200 µM.

And the TGI [39]?
Its TGI is over 200 µM.

And the GI50 [40]?
Its GI50 is over 200 µM.

What about the TGI [40] of the same compound?
Its TGI is over 200 µM.

And the TGI [41]?
Its TGI is over 200 µM.

And the GI50 [42]?
Its GI50 is over 200 µM.

What about the TGI [42] of the same compound?
Its TGI is over 200 µM.

What about the TGI [43] of the same compound?
The TGI was over 200 µM.

What about the GI50 [44] of the same compound?
Its GI50 is over 200 µM.

And the TGI [44]?
The TGI was over 200 µM.

What about the GI50 [45] of the same compound?
Its GI50 is over 200 µM.

What about the TGI [45] of the same compound?
Its TGI is over 200 µM.

What about the GI50 [46] of the same compound?
Its GI50 is over 200 µM.

And the TGI [46]?
Its TGI is over 200 µM.

What about the GI50 [47] of the same compound?
Its GI50 is over 200 µM.

What about the TGI [47] of the same compound?
The TGI was over 200 µM.

And the GI50 [48]?
Its GI50 is over 200 µM.

And the TGI [48]?
The TGI was over 200 µM.

What about the TGI [49] of the same compound?
The TGI was over 200 µM.

And the TGI [50]?
Its TGI is over 77 µM.

What about the TGI [51] of the same compound?
The TGI was over 200 µM.

And the GI50 [52]?
The GI50 was over 200 µM.

And the TGI [52]?
The TGI was over 200 µM.

And the TGI [53]?
Its TGI is over 200 µM.

And the TGI [54]?
Its TGI is over 200 µM.

And the GI50 [55]?
The GI50 was over 200 µM.

And the TGI [55]?
The TGI was over 200 µM.

What about the GI50 [56] of the same compound?
Its GI50 is over 200 µM.

What about the TGI [56] of the same compound?
The TGI was over 200 µM.

And the GI50 [57]?
Its GI50 is over 200 µM.

And the TGI [57]?
The TGI was over 200 µM.

And the GI50 [58]?
The GI50 was over 200 µM.

And the TGI [58]?
Its TGI is over 200 µM.
